In one data set the target is T1, UGT1A10 (Homo sapiens, UniProt Q9HAW8).
T1 sequence (Q9HAW8 26-530): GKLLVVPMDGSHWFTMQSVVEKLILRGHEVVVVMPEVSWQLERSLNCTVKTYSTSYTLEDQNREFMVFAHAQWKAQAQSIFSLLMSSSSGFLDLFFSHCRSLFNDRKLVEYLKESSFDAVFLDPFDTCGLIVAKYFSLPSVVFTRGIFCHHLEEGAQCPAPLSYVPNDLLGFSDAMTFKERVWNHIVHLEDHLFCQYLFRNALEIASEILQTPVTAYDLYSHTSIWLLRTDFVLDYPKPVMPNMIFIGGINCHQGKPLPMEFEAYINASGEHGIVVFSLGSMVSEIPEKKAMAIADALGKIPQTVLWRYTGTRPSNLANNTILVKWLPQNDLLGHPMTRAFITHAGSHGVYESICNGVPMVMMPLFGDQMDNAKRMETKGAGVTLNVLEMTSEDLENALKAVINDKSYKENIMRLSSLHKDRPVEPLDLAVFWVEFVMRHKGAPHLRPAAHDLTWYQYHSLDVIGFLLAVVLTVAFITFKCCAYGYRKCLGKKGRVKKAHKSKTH
The experiment in a line: Screening for aprepitant glucuronidation, UGT1A10 Supersomes. The format is in vitro ADME. Particulars: UGT1A10, 5 and 250 µM aprepitant.

The target in the next data set is T2, UGT1A6 (Homo sapiens, UniProt P19224).
T2 sequence (P19224 27-532): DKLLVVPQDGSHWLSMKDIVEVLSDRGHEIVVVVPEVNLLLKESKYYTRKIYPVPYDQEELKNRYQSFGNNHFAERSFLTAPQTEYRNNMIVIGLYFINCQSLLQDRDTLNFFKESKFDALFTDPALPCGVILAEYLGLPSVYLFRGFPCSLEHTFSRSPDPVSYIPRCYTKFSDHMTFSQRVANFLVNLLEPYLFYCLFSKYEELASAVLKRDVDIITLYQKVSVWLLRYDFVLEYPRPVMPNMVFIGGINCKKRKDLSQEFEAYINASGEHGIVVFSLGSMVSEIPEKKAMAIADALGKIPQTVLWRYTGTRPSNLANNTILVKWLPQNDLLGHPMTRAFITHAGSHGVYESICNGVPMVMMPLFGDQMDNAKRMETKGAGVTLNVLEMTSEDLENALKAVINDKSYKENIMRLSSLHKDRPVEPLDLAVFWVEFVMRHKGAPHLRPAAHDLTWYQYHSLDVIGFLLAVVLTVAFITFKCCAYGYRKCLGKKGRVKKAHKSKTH
The experiment in a line: Screening for aprepitant glucuronidation, UGT1A6 Supersomes. The format is in vitro ADME. Particulars: UGT1A6, 5 and 250 µM aprepitant.

The target of a further data set is T3, UGT1A3 (Homo sapiens, UniProt P35503).
T3 sequence (P35503 29-534): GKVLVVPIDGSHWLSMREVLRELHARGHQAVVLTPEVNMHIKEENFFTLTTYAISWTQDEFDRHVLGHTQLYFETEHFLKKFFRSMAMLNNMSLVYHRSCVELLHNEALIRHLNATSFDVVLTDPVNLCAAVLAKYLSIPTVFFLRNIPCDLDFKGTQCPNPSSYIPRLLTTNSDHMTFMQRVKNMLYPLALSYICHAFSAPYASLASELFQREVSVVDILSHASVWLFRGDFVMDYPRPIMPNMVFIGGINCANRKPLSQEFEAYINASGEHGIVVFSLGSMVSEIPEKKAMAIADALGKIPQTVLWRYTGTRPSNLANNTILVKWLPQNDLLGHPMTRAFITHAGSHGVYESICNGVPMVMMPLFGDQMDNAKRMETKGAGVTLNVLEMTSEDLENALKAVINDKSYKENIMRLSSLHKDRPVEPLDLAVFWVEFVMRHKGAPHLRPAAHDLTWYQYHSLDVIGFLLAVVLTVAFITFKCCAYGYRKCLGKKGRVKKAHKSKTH
As to conditions: pH 7.5; for velocity of AP-G formation: 60 min.

Data set [1] is described as follows: Calculated concentration of drug in the lumen of the gut. On the set-up: species or system human. As to conditions: molar dose/250 mL.
A further data set addresses T4, UGT1A1 (Homo sapiens, UniProt P22309).
T4 sequence (P22309 26-533): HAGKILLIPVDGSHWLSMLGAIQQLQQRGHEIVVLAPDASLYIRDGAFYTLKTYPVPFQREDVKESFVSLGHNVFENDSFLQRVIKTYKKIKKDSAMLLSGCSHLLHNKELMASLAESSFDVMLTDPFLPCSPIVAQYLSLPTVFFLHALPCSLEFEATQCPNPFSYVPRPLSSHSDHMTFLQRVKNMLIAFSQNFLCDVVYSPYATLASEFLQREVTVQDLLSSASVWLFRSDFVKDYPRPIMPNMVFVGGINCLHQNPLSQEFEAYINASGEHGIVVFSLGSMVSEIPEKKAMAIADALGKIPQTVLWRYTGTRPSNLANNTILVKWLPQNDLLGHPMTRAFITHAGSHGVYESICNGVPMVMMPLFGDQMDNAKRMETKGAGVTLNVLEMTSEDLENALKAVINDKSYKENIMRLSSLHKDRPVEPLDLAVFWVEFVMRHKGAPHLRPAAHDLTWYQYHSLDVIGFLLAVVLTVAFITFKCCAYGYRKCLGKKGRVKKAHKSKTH
Put plainly: Screening for aprepitant glucuronidation, UGT1A1 Supersomes. The format is in vitro ADME. Particulars: UGT1A1, 5 and 250 µM aprepitant.

Another data set deals with T5, UGT2B4 (Homo sapiens, UniProt P06133).
T5 sequence (P06133 24-528): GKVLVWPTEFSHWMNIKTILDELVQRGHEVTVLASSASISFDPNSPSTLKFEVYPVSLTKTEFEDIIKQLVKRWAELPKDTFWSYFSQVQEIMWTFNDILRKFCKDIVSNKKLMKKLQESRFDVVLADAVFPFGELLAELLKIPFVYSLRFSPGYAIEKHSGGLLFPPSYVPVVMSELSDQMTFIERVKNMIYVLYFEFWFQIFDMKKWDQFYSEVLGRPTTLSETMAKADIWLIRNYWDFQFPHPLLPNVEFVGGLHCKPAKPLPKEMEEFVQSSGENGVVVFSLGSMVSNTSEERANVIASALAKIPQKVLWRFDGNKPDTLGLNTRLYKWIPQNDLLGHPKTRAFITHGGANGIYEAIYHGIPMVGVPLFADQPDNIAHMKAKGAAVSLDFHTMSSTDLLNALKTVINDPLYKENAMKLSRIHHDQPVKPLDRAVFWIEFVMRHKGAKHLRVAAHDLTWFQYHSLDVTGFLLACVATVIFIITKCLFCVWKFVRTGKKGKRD
Put plainly: Screening for aprepitant glucuronidation, UGT2B4 Supersomes. Type of data set: in vitro ADME. As to conditions: UGT2B4, 5 and 250 µM aprepitant.

In data set [2] the test system is human intestinal microsomes (HIM).

The values below come from article PMC4844176 (Xenobiotica; the fate of foreign compounds in biological …, 2015).

Like-named read-outs stand apart in the source and are kept apart here.

For `C[C@@H](O[C@H]1OCCN(Cc2n[nH]c(=O)[nH]2)[C@H]1c1ccc(F)cc1)c1cc(C(F)(F)F)cc(C(F)(F)F)c1` [aprepitant, Aprepitant], the AP-G formation entry at UGT1A10, on UGT1A6, on UGT1A1 and on UGT2B4 was “not detected” each time. Further, the “velocity of AP-G formation” value on UGT1A3 (5 µM) is recorded as 44.1 ± 0.7 fmol/min/mg protein; on UGT1A3 (250 µM), 717.3 ± 18.6 fmol/min/mg protein; in data set [2] (human, 60 min, 250 µM, pH 7.5), 278.3 ± 1.9 fmol/min/mg protein. On UGT1A3 (recombinant enzyme), the CLint worked out at 15 µl/min/µg protein. The “luminal concentration (Igut)” value in data set [1] (40 mg oral capsule) was 300 µM; in data set [1] (125 mg oral capsule), 936 µM. Further, in data set [2] (HIM, mean ± SE), the Vmax is 352 ± 8 fmol/min/mg protein.
